Laboratory results from patent US20240217992A1, “RETINOIC ACID RECEPTOR AGONIST, PREPARATION METHOD THEREFOR, INTERMEDIATE, PHARMACEUTICAL COMPOSITION AND USE” (JIANGXI KERUI PHARMACEUTICAL CO., LTD., priority 2021, published 2024).

Experiments:
RARγ = biological target: T1, RARγ (Homo sapiens, UniProt P13631); assay: Agonist activity on RARγ, dual luciferase reporter gene assay in transfected HEK-293 cells; format: cell-based; conditions: for EC50: HEK-293 cells, 24 h incubation, firefly/Renilla luciferase signal; for selectivity on RARγ compared with Trifarotene: RARγ versus RARα, from Table 2; for agonist activity on RARγ compared with Trifarotene: comparison of Table 2 EC50 values
T1 construct: expressed in transfected cells; host or cells: HEK-293 (ATCC #CRL-1573)
T1 sequence (P13631 1-454): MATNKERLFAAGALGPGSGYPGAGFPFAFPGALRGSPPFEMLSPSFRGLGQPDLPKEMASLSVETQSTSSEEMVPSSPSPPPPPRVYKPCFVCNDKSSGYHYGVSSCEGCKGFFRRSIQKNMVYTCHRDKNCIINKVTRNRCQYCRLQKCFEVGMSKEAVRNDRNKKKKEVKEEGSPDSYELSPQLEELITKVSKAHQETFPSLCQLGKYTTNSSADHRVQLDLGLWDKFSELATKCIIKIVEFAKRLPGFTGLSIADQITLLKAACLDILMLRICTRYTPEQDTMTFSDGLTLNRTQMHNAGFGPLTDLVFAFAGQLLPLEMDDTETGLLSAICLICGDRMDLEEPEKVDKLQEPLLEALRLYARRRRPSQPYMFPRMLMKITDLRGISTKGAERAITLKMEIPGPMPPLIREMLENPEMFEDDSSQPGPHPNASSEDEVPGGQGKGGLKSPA
Method: (§1) • 1. Day 1: Cell culture. The culture dish was treated with trypsin, and then cells at an appropriate concentration were inoculated into 10 mL of culture medium. Cell culture conditions: 37° C., 5% CO2, humid environment. • 2. Day 3: Transfection with FuGENE transfection reagent. A transfection mixture was prepared using the method of the supplier's instructions, then the tube was shaken vigorously to mix well, and the transfection mixture was left to incubate for 15 minutes at room temperature. The mixture was treated with trypsin to determine the cell density, and the cell suspension was appropriately diluted to the appropriate volume and density. The appropriate transfection reagent mixture was added thereto, and the cell suspension was added to a 96-well plate at 100 μL per well. The 96-well plate was incubated for 24 hours under the cell culture conditions in step 1. • 3. Day 4: Addition of test compound. The compound was formulated into a DMSO stock solution at a concentration of 210× and diluted to make a solution at a concentration of 21× by the addition of 9 times the amount of solvent. 5 μL of the compound solution at a concentration of 21× was added to each well and incubated for 24 hours under the same conditions as step 1. • 4. Day 5: Plate reading. The Dual Luciferase Reporter Gene Assay System was left at room temperature for 30 minutes prior to use, and […] was added to each well of the 96-well plate to detect the intensity of firefly luciferin in an appropriate manner. Afterwards, Stop&Glo reagent was added to detect the intensity of Renilla luciferin. • 5. Data processing. Signal=intensity of firefly luciferin/intensity of Renilla luciferin, multiple of agonist activation=compound signal/baseline signal (the intensity of the baseline signal was obtained from DMSO solution without the compound). pEC50 values were obtained by processing the data with GraphPad Prism, which were further converted to EC50 values.

RARα = biological target: T2, RARα (Homo sapiens, UniProt P10276); assay: Agonist activity on RARα, dual luciferase reporter gene assay in transfected HEK-293 cells; format: cell-based; conditions: 24 h incubation, firefly/Renilla luciferase signal
T2 construct: expressed in transfected cells; host or cells: HEK-293 (ATCC #CRL-1573)
T2 sequence (P10276 1-462): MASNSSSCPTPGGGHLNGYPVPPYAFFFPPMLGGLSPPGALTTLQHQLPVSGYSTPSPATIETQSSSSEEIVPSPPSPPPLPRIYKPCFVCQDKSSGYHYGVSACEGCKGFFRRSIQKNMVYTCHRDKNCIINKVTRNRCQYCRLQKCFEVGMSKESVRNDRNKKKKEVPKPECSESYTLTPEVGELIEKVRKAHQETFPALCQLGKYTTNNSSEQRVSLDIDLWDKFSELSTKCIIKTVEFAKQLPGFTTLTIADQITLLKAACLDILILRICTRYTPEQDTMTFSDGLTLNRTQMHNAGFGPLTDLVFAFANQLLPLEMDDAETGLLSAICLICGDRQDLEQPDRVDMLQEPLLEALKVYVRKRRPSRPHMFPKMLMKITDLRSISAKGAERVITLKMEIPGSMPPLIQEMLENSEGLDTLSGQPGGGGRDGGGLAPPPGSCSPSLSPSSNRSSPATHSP
Method: as §1

human hepatocytes [1] = conditions: 10 µM
Method: (§2) The metabolic stability of the compounds was tested using human hepatocytes.
(§3) • 1. The compounds and hepatocytes were incubated for 240 minutes in the following system.
(§4) The culture was inactivated with 2 volumes of acetonitrile (0.1% FA) and then centrifuged for 15 minutes at 16,000 g. • 3. The supernatant was analyzed by LC-MS/MS for prototype compounds and metabolites.

human hepatocytes [2] = assay: Hepatocyte stability (metabolic stability in human hepatocytes, LC-MS/MS); conditions: for Normalized area (240 minutes), prototype compound peak (molecular weight shift 0.00): human hepatocytes 1.0 × 10^6 cells/mL, 37° C.
Method: as §2, §3, §4

C[Si](C)(C)c1cc(-c2cc(-c3ccc(C(=O)O)cc3)ccc2OCCO)ccc1N1CCCC1 [Compound I-1, 4′-(2-hydroxyethoxy)-4′-(pyrrolidin-1-yl)-3′-(trimethylsilyl)-[1,1′:3′,1′-terphenyl]-4-carboxylic Acid] was tested, and the EC50 (RARγ) was 0.88 nM, the “selectivity on RARγ compared with Trifarotene” value (shortened to “selectivity on RARγ”) (RARγ) was “better than that of Trifarotene” and the “agonist activity on RARγ compared with Trifarotene” value (RARγ) was “equal to or stronger than that of Trifarotene”. The EC50 (RARα) was 64 nM, the “Normalized area (240 minutes), Peak 4 of compound I-1 (molecular weight shift 0.02)” value (human hepatocytes [1]) was 68.15% and the “prototype compound remaining after 240 minutes of incubation in hepatocytes” value (human hepatocytes [2]; human hepatocytes) was “less than 1%”. For the same molecule, the “Normalized area (240 minutes), prototype compound peak (molecular weight shift 0.00)” value (human hepatocytes [2]; 10 μM) was 0.12%.
C[Si](C)(C)c1cc(-c2cc(-c3ccc(C(=O)O)cc3)ccc2OCCCCO)ccc1N1CCCC1 [Compound I-3, 4′-(4-hydroxybutoxy)-4″-(pyrrolidin-1-yl)-3″-(trimethylsilyl)-[1,1′:3′,1″-terphenyl]-4-carboxylic acid] was tested, and the EC50 (RARγ) was 9.08 nM, the “selectivity on RARγ” value (RARγ) was “better than that of Trifarotene” and the EC50 (RARα) was 382 nM.
For C[Si](C)(C)c1cc(-c2cc(-c3ccc(C(=O)O)cc3)ccc2OCCCO)ccc1N1CCCC1 [Compound I-2, 4′-(3-hydroxypropoxy)-4″-(pyrrolidin-1-yl)-3″-(trimethylsilyl)-[1,1′:3′,1″-terphenyl]-4-carboxylic acid], the EC50 (RARγ) was 0.77 nM, the “selectivity on RARγ” value (RARγ) was “better than that of Trifarotene” and the “agonist activity on RARγ compared with Trifarotene” value (RARγ) was “equal to or stronger than that of Trifarotene”. For the same molecule, the EC50 (RARα) was 15.5 nM.
C[Si]1(C)CC[Si](C)(C)c2cc(-c3cc(-c4ccc(C(=O)O)cc4)ccc3OCCO)ccc21 [Compound I-5, 4′-(2-hydroxyethoxy)-3′-(1,1,4,4-tetramethyl-1,2,3,4-tetrahydrobenzo[b][1,4]disilan-6-yl)-[1,1′-biphenyl]-4-carboxylic acid] was tested, and the EC50 (RARγ) was 1.05 nM, the “selectivity on RARγ” value (RARγ) was “better than that of Trifarotene” and the “agonist activity on RARγ compared with Trifarotene” value (RARγ) was “equal to or stronger than that of Trifarotene”. It also gave an EC50 (RARα) of 18.5 nM.
CC(C)(C)c1cc(-c2cc(-c3ccc(C(=O)O)cc3)ccc2OCCO)ccc1N1CCCC1 [Trifarotene] was tested, and the “prototype compound remaining after 240 minutes of incubation in hepatocytes” value (human hepatocytes [2]; human hepatocytes) was 13.57%, the “Normalized area (240 minutes), prototype compound peak (molecular weight shift 0.00)” value (human hepatocytes [2]; 10 μM) was 13.57% and the “Normalized area (240 minutes), Peak 3 of Trifarotene (molecular weight shift 16.00)” value (human hepatocytes [2]; human hepatocytes, 10 μM, metabolite peak m/z 476.24) was 54.29%. The “Normalized area (240 minutes), Peak 1 of Trifarotene (molecular weight shift 31.99)” value (human hepatocytes [2]; human hepatocytes, 10 μM, metabolite peak m/z 492.24, retention time 4.18 minutes) was 9.35%, the “Normalized area (240 minutes), Peak 4 of Trifarotene (molecular weight shift 31.99)” value (human hepatocytes [2]; human hepatocytes, 10 μM, metabolite peak m/z 492.24, retention time 7.76 minutes) was 9.10% and the “Normalized area (240 minutes), Peak 2 of Trifarotene (molecular weight shift 192.03)” value (human hepatocytes [2]; human hepatocytes, 10 μM, metabolite peak m/z 652.27) was 9.98%.
